Measurements from patent US20250120967A1, “TYROSINE KINASES INHIBITORS AND USES THEREOF” (GREAT NOVEL THERAPEUTICS BIOTECH & MEDICALS CORPORATION, priority 2023, published 2025).
Read-outs that look alike come from different tables or passages of the source.

Legend:
FRK (PTK5) = FRK (PTK5) (Homo sapiens, UniProt P42685); test: Tyrosine kinase inhibition assay; format: biochemical; details: for inhibition at 1 µM: single concentration 1.0 μM, read-out: percent inhibition; for IC50: read-out: IC50 of compound
Description: (§1) Tyrosine kinase inhibition assays were performed at ThermoFisher Life Technologies (Madison, WI, USA) using standard protocols (SelectScreen Biochemical Profiling Service, Thermo Fisher Scientific). ATP concentrations used were at the apparent Km. Test compounds were screened in 1% dimethylsulffoxide (DMSO) (final concentration) in the well. For 10-point titrations, 3-fold serial dilutions were conducted from the starting concentration of […]. All Peptide/Kinase Mixtures were diluted to a 2× working concentration in the appropriate Kinase Buffer. All ATP Solutions were diluted to a 4× working concentration in Kinase Buffer (50 mM HEPES pH 7.5, 0.01% BRIJ-35, 10 mM MgCl2, 1 mM EGTA). The apparent ATP Km was previously determined using a Z′-LYTE assay. The Development Reagent was diluted in Development Buffer.
(§2) The inhibition activities of compounds were determined in biochemical assays using single concentration (1.0 μM) measurements. The results were provided as percent inhibition values.

RET = RET (Homo sapiens, UniProt P07949); test: Tyrosine kinase inhibition assay; format: biochemical; details: for inhibition at 1 µM: single concentration 1.0 μM, read-out: percent inhibition
Description: as §1, §2

CT-26 cells = test: In vitro cytotoxicity assay (MTT, 72 h); format: cell-based, murine; details: Mus musculus, CT26, growth inhibition
Description: Six different cell lines were used, including human breast cancer cell lines MDA-MB-231 (6×10^3) and MDA-MB-453 (2.4×10^4), human colorectal cell line SW48 (2.4×10^4), human breast epithelial cell line M10 (6×10^3), human cancer cell line A549 (1.4×10^3), and murine colorectal carcinoma tumors CT26 (6×10^3), which were seeded in a 96-well plate. […] After 72 h, MTT assay (Cayman™) was used to determine the cellular viability.

FLT3 = molecular target: T1, FLT3 (Homo sapiens, UniProt P36888); test: Tyrosine kinase inhibition assay; format: biochemical; details: for inhibition at 1 µM: single concentration 1.0 μM, read-out: percent inhibition; for IC50: read-out: IC50 of compound
T1 sequence (P36888 27-993): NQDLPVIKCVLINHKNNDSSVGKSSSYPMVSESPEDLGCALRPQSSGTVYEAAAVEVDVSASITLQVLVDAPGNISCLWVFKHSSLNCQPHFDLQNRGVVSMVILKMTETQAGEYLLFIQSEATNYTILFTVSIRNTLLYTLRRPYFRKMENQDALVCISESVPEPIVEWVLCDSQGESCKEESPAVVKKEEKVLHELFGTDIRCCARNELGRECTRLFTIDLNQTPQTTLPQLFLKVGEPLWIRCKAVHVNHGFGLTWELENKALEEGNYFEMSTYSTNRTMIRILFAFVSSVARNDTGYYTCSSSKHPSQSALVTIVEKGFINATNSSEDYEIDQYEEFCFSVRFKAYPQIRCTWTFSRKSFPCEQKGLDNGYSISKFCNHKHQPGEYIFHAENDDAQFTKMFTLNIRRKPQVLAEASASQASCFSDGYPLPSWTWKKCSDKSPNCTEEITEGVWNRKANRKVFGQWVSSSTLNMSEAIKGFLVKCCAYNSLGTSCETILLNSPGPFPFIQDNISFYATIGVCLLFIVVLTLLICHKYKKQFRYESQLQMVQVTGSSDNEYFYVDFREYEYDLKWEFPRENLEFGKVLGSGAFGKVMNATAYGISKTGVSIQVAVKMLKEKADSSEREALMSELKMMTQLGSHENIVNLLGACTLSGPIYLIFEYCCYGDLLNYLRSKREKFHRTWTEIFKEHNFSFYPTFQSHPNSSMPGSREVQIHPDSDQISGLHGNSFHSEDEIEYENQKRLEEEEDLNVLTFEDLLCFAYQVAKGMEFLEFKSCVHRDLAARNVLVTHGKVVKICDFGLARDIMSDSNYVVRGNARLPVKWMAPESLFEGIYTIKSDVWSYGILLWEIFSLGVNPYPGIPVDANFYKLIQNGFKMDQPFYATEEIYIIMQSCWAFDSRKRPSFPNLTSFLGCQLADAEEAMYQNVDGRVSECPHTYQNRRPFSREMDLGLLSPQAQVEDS
Description: as §1
(§3) The inhibition activities of compounds were determined in biochemical assays using single concentration (1.0 μM) measurements. The results were provided as percent inhibition values. […] 99 different tyrosine kinases were used.

MST1R (RON) = MST1R (RON) (Homo sapiens, UniProt Q04912); test: Tyrosine kinase inhibition assay; format: biochemical; details: for inhibition at 1 µM: single concentration 1.0 μM, read-out: percent inhibition; for IC50: read-out: IC50 of compound
Description: as §1, §3

TEK (Tie2) = TEK (Tie2) (Homo sapiens, UniProt Q02763); test: Tyrosine kinase inhibition assay; format: biochemical; details: for inhibition at 1 µM: single concentration 1.0 μM, read-out: percent inhibition; for IC50: read-out: IC50 of compound
Description: as §1, §3

CSF1R (FMS) = CSF1R (FMS) (Homo sapiens, UniProt P07333); test: Tyrosine kinase inhibition assay; format: biochemical; details: for IC50: read-out: IC50 of compound; for inhibition at 1 µM: single concentration 1.0 μM, read-out: percent inhibition
Description: as §1, §3

TYRO3 (RSE) = molecular target: T2, TYRO3 (RSE) (Homo sapiens, UniProt Q06418); test: Tyrosine kinase inhibition assay; format: biochemical; details: for inhibition at 1 µM: single concentration 1.0 μM, read-out: percent inhibition
T2 sequence (Q06418 41-890): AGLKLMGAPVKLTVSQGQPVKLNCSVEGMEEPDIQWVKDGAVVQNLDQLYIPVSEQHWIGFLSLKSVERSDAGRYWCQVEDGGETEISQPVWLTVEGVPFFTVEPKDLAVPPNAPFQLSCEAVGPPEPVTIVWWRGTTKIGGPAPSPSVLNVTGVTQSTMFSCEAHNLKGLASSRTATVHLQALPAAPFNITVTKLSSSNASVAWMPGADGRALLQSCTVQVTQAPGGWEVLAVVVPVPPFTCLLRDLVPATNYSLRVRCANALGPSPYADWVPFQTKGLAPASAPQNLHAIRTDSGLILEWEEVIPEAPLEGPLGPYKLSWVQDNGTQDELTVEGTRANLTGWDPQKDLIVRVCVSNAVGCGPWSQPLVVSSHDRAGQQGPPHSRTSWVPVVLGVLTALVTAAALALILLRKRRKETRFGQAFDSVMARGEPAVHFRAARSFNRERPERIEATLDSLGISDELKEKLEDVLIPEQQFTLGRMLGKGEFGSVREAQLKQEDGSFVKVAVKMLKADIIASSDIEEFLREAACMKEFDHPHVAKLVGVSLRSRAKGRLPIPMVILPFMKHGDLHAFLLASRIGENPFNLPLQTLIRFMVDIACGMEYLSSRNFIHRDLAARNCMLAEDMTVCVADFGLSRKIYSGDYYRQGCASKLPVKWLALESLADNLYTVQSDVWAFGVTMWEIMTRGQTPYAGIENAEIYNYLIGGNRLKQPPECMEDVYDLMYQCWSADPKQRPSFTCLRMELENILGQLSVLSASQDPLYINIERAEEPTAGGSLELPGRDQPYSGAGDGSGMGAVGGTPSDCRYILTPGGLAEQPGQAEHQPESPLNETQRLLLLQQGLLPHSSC
Description: as §1, §3

[1] = TYRO3 (RSE), read-out: IC50 of compound

Sequence of MST1R (RON) (Q04912 25-1400): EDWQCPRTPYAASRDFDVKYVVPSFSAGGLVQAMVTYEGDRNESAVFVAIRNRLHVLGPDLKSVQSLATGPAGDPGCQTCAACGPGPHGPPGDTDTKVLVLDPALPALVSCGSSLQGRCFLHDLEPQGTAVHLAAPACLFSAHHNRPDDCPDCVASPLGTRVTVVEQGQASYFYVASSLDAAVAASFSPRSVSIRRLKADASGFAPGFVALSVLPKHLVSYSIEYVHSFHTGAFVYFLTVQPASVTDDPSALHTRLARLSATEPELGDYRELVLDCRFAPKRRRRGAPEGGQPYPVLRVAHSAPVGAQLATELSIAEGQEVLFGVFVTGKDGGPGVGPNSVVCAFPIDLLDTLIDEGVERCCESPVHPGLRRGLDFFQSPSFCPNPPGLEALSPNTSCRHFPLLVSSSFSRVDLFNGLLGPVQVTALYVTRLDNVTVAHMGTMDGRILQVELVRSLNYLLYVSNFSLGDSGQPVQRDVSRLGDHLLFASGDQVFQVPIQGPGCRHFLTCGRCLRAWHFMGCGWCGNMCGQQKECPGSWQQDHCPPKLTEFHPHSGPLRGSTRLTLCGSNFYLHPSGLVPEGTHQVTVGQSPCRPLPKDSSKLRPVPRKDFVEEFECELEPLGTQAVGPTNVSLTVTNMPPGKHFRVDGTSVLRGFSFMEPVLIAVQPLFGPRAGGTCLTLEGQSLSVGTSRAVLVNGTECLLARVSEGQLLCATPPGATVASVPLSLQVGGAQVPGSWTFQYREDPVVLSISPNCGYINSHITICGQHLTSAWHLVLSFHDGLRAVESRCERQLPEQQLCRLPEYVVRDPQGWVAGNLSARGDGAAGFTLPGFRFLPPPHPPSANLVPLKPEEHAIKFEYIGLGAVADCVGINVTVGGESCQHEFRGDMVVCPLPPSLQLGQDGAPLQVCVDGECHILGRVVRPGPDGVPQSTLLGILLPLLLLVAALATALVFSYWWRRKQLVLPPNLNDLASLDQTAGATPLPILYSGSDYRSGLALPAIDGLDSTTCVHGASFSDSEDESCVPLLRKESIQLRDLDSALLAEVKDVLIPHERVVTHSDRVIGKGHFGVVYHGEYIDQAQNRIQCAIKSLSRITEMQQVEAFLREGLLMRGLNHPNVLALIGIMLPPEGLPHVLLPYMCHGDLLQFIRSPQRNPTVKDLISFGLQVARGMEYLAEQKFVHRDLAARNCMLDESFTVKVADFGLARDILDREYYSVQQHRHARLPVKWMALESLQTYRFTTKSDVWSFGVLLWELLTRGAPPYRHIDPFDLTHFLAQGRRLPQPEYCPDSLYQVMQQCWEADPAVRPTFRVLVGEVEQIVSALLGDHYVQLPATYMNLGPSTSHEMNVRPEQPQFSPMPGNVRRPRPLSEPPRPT
Sequence of CSF1R (FMS) (P07333 20-972): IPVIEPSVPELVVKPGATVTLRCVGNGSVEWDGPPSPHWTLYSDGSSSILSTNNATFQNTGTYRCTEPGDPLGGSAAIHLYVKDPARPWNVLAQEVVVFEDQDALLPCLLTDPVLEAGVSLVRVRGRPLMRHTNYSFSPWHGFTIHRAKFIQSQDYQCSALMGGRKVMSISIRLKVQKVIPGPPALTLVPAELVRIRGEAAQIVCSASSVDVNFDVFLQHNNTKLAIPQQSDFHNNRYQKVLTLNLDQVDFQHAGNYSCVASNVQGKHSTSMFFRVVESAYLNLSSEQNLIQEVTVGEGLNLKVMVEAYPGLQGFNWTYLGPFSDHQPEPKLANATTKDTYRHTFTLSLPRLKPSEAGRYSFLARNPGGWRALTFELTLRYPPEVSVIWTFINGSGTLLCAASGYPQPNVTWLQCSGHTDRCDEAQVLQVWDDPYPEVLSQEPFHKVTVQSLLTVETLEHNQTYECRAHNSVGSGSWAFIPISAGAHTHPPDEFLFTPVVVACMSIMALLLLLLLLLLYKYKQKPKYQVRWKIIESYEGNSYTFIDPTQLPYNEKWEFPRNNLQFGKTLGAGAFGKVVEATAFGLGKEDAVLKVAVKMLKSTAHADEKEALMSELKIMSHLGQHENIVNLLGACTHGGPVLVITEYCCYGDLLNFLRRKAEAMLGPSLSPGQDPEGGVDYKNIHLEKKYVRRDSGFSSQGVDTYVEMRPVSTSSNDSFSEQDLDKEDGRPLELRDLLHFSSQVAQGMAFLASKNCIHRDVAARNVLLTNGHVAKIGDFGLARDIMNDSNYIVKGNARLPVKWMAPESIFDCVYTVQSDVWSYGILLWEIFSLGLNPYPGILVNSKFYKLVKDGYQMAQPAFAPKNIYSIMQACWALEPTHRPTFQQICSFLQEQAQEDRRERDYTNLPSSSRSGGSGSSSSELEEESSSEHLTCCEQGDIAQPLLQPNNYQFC
Sequence of RET (P07949 29-1114): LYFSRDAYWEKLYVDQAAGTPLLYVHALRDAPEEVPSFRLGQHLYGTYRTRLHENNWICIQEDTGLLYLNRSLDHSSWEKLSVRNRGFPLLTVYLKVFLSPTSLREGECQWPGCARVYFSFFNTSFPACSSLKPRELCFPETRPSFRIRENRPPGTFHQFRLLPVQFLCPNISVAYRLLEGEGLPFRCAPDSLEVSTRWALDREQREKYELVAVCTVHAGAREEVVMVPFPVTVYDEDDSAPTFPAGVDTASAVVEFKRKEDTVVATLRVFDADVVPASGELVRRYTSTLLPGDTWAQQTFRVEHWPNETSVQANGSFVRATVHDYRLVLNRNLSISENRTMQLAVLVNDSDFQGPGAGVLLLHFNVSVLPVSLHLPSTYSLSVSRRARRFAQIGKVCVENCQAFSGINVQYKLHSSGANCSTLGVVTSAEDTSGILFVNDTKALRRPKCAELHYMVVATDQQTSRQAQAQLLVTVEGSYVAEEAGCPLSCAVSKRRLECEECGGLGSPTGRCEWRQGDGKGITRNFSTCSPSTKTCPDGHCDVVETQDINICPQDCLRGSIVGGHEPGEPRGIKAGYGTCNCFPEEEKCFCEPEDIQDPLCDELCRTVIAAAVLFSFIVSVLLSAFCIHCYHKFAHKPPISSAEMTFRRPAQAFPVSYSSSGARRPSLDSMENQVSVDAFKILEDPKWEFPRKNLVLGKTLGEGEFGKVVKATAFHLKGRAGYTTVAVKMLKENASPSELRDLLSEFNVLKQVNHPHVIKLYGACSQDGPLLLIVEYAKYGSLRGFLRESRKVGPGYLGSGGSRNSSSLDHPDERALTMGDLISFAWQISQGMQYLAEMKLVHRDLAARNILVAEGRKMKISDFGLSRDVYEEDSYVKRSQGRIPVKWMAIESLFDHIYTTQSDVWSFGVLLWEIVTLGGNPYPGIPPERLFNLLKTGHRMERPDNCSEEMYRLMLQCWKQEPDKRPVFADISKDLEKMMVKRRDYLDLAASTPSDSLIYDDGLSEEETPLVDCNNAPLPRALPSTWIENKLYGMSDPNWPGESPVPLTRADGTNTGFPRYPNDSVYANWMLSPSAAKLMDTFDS
Sequence of TEK (Tie2) (Q02763 23-1124): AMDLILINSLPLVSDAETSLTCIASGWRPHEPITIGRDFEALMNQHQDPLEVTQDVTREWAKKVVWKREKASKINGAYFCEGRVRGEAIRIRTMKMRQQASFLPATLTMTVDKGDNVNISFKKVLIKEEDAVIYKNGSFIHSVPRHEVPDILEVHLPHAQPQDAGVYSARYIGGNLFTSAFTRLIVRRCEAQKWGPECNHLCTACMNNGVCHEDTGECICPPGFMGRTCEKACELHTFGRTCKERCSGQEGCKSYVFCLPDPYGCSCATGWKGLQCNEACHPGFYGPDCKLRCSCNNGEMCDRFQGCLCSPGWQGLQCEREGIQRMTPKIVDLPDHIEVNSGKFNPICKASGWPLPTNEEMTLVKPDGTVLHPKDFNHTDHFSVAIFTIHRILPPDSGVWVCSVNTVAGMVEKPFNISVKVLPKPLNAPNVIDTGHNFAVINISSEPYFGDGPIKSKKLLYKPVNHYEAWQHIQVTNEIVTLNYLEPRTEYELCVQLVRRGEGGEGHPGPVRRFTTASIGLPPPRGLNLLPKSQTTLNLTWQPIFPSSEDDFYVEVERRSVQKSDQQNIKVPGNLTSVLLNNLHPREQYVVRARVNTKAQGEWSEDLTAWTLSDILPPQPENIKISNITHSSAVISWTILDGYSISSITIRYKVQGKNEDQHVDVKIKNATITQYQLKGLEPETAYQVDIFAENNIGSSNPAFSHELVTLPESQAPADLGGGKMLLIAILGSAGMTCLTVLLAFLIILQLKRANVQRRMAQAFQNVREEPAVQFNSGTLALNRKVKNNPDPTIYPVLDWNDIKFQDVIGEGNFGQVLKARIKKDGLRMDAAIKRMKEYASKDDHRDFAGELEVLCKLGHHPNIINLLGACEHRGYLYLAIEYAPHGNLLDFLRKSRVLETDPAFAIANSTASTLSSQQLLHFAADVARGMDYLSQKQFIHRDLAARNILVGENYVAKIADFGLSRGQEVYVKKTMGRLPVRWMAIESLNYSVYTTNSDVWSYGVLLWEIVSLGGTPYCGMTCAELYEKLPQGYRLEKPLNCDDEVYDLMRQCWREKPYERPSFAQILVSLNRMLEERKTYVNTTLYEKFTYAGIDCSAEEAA
Sequence of FRK (PTK5) (P42685 whole entry): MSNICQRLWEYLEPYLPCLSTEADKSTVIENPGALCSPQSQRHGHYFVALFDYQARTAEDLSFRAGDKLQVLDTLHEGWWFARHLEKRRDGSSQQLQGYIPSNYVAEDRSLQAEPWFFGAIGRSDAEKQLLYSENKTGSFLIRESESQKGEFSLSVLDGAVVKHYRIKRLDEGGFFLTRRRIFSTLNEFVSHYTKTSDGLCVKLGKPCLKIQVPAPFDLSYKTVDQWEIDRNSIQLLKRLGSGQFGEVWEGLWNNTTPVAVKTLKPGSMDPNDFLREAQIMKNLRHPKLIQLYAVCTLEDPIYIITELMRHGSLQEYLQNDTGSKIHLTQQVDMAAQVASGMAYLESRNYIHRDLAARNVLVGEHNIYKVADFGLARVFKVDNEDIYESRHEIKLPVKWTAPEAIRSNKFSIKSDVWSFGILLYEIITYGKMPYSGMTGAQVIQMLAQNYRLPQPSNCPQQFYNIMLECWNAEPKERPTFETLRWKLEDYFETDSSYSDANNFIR

| IC50 (RET; read-out: IC50 of compound) [nM] | Compound | inhibition at 1 µM (FRK (PTK5)) [%] | inhibition at 1 µM (RET) [%] | IC50 (CT-26 cells) [nM] | inhibition at 1 µM (FLT3) [%] | inhibition at 1 µM (MST1R (RON)) [%] | inhibition at 1 µM (TEK (Tie2)) [%] | IC50 (CSF1R (FMS)) [nM] | inhibition at 1 µM (CSF1R (FMS)) [%] | IC50 (TYRO3 (RSE)) [nM] | inhibition at 1 µM (TYRO3 (RSE); TYRO3 (RSE)) [%] | IC50 (FRK (PTK5)) [nM] | IC50 (FLT3) [nM] | IC50 (MST1R (RON)) [nM] | IC50 (TEK (Tie2)) [nM] | IC50 (TYRO3 (RSE); [1]) [nM] |
| --- | --- | --- | --- | --- | --- | --- | --- | --- | --- | --- | --- | --- | --- | --- | --- | --- |
|  | COc1cc2nccc(Oc3ccc(NC(=O)C4(C(=O)Nc5ccc(F)cc5)CC4)cc3)c2cc1OC [Cabozantinib, reference compound] | 99 | 98 | 19600 ± 4300 | 90 | 95 | 89 | 11.9 | 88 | 9.1 |  |  |  |  |  |  |
|  | COc1cc2nccc(Oc3ccc(NC(=O)C4(NC(=O)c5ccc(F)cc5)CC4)cc3F)c2cc1OC [Cbo-02, N-(1-((4-((6,7-diMethoxyquinolin-4-yl)oxy)-3-fluorophenyl)carbamoyl)cyclopropyl)-4-fluorobenzamide] | 59 | 67 | 8200 ± 600 | 56 | 96 | 77 |  | 83 |  | 58 |  |  |  |  |  |
|  | COc1cc2nccc(Oc3ccc(NC(=O)C4(NC(=O)c5ccc(F)cc5)CC4)cc3F)c2cc1Oc1ccc(N)cc1F [Cbo-10] | 91 | 79 | 5010 ± 160 | 70 | 100 | 85 |  | 96 |  | 87 |  |  |  |  |  |
|  | COc1cc2nccc(Oc3ccc(NC(=O)C4(NC(=O)c5ccc(F)cc5)CC4)cc3F)c2cc1Oc1c(F)cc(N)cc1F [Cbo-14] | 100 | 89 | 4900 ± 110 | 81 | 100 | 90 |  | 93 |  | 89 |  |  |  |  |  |
|  | COc1cc2nccc(Oc3ccc(NC(=O)C4(C(=O)Nc5ccc(F)cc5)CC4)cc3F)c2cc1Oc1ccc(N)cc1F [Cbo-23] | 99 | 101 | 5180 ± 1730 | 99 | 101 | 95 | 40.2 | 99 |  | 100 | 27 | 24.8 | 51.5 | 63.1 | 12.5 |
| 22.5 | CNC(=O)c1cc2c(Oc3ccc(NC(=O)C4(C(=O)Nc5ccc(F)cc5)CC4)cc3)ccnc2cc1OC [Zanzalintinib, reference compound] |  |  | 22000 ± 290 |  |  |  | 16.3 |  |  |  | 10.3 | 5.43 | 135 | 150 | 9.49 |
